From patent US20080057071A1, “Use Of Hedgehog Pathway Inhibitors In Small-Cell Lung Cancer” (priority 2003, published 2008)

Legend:
Format in all cases: cell-based, human
[1] = system: BMP4, nestin and ASH-1 transcripts; test: RT-PCR analysis of transcripts in NCI-H249 SCLC cells; settings: 48 h, FIG. 3h
Experimental: Total cellular RNA was treated with DNAse, reverse transcribed, and amplified for 31 cycles at an annealing temperature of 55° C. Primers used were: […]

NCI-H249 SCLC cells [2] = test: Cell cycle analysis in NCI-H249 cells; settings: unsynchronized NCI-H249 SCLC cells; 5 μM; 72 h; FIG. 3e
NCI-H249 SCLC cells [3] = test: Cleaved PARP expression (apoptosis) by immunoblot; settings: 5 μM, 72 h, FIG. 3f
Experimental: Whole-cell lysates were sonicated in 2% SDS/50 mM TrisHCl, pH 8. […] Anti-cleaved PARP was obtained from Promega.

Ptch mRNA = Ptch mRNA expression by northern blot analysis; settings: NCI-H249 SCLC cells, FIG. 3g
NCI-H249 SCLC cells [4] = test: Soft agar clonogenicity of NCI-H249 SCLC cells; settings: FIG. 4a, b
NCI-H249 SCLC cells [5] = test: Cell growth of NCI-H249 SCLC cells (MTT assay); settings: for cell growth after compound treatment: NCI-H249 SCLC cells, 5 days, FIG. 3b
Experimental: (§1) MTT assays were performed as described (Sriuranpong (2002), supra).

NCI-H157 NSCLC cells = test: Cell growth of NCI-H157 NSCLC cells (MTT assay); settings: 5 days, FIG. 3c
Experimental: as §1

| Structure (SMILES) | BMP4 expression [1] | human ASH-1 expression [1] | nestin expression [1] | cell cycle effect (NCI-H249 SCLC cells [2]) | apoptosis (cleaved PARP) (NCI-H249 SCLC cells [3]) | Ptch mRNA expression (Ptch mRNA) | soft agar clonogenicity effect in cells overexpressing GLI-1 (NCI-H249 SCLC cells [4]; NCI-H249 SCLC cells stably transfected with Flag-Gli1, cyclopamine 5 μM) | soft agar clonogenicity (NCI-H249 SCLC cells [4]; NCI-H249 SCLC cells) | growth inhibition by cyclopamine in cells stably expressing Flag-tagged GLI-1 (NCI-H249 SCLC cells [5]; NCI-H249 SCLC cells stably transfected with Flag-Gli1, MTT, FIG. 3d) | growth inhibition by cyclopamine in cells expressing GLI-1 mutant lacking the zinc finger DNA-binding domain (NCI-H249 SCLC cells [5]; NCI-H249 SCLC cells stably transfected with Flag-Gli1ZFD, MTT, FIG. 3d) | cell growth after compound treatment (NCI-H157 NSCLC cells) | cell growth after compound treatment (NCI-H249 SCLC cells [5]) |
| --- | --- | --- | --- | --- | --- | --- | --- | --- | --- | --- | --- | --- |
| CC1=C2C[C@H]3[C@@H](CC=C4C[C@@H](O)CC[C@@]43C)[C@@H]2CC[C@]12O[C@@H]1C[C@H](C)CN[C@H]1[C@H]2C [cyclopamine] | inhibited expression | inhibited expression | inhibited expression | arrest of the cell cycle in Go/G1 | increase in cleaved PARP | downregulation | reversed | reduced soft agar clonogenicity | protected NCI-H249 SCLC cells from growth inhibition | had no effect |  |  |
| C[C@H]1CC[C@]2(NC1)O[C@H]1C[C@H]3[C@@H]4CC[C@H]5C[C@@H](O)CC[C@]5(C)[C@H]4CC[C@]3(C)[C@H]1[C@@H]2C [tomatidine] |  |  |  |  |  |  |  |  |  |  | None of KAAD-cyclopamine, cyclopamine or tomatidine was able to affect growth | no effect |
| CC1=C2C[C@H]3[C@@H](CC=C4CC(=O)CC[C@@]43C)[C@@H]2CC[C@]12O[C@@H]1C[C@H](C)CN(CCNC(=O)CCCCCNC(=O)CCc3ccccc3)[C@H]1[C@H]2C [KAAD-cyclopamine] |  |  |  |  |  |  |  |  |  |  | None of KAAD-cyclopamine, cyclopamine or tomatidine was able to affect growth | significant growth inhibition |
